Assay results as given in patent US20240025899A1, “TRIHETEROCYCLIC DERIVATIVE, AND PHARMACEUTICAL COMPOSITION AND APPLICATION THEREOF” (SHANGHAI DE NOVO PHARMATECH CO., LTD., priority 2020, published 2024).
Counter-ions that a name gives are not always drawn.

Key:
[1] = test system: LOVO human colon cancer cell line; assay: Cell proliferation assay (Cell titer glo); type: cell-based; conditions: LOVO cells, 72 hours
Experimental: In the present disclosure, cell assays were used to evaluate the biological activity of compounds. LOVO (Nanjing Cobioer), a human colon cancer cell line, was cultured in a Dulbecco's Modified Eagle's medium 96-well plate, supplemented with 10% fetal bovine serum and 1% P/S, and the culture environment was 37° C. and 5% CO2. Compound concentrations were ranged from 4.5 nM to 30 μM. The stock solution of the test compound was dissolved in DMSO and added to the medium at the indicated concentration, and incubated for 72 hours. Negative control cells were treated with vehicle only. In some experiments, known ATR inhibitors were added as positive controls. Cell viability was evaluated using the Cell titer glo kit (CTG, Promega) under the instructions of the product specification. The data were analyzed using Graphpad software, and IC50 values and compound fitting curves were obtained (Table 2).

ATR/ATRIP kinase = ATR/ATRIP kinase (Homo sapiens (Human), UniProt Q13535); assay: ATR enzyme assay (HTRF, phosphorylation of substrate protein P53); type: biochemical; conditions: substrate P53, TR-FRET
Experimental: In this experiment, the phosphorylation level of substrate protein P53 (Eurofins, 14-952) was detected by HTRF technology to measure the activity of ATR/ATRIP (Eurofins, 14-953) kinase. Reaction buffer (25 mM HEPES pH 8.0, 0.01% Brij-35, 1% Glycerol, 5 mM DTT, 1 mg/mL BSA), termination buffer (12.5 mM HEPES pH 8.0, 0.005% Brij-35, 0.5% Glycerol, 250 mM EDTA) and assay buffer (50 mM HEPES pH 7.0, 150 mM NaCl, 267 mM KF, 0.1% sodium cholate, 0.01% Tween 20) were prepared in advance. ATR/ATRIP was diluted with reaction buffer to a working solution of 2 ng/μL, and the substrate protein P53 was diluted with reaction buffer to a working solution of 80 nM, and 4 nM of ATP (Sigma, A2383) working solution (containing 40 mM MnCl2) was prepared with reaction buffer. The compound was 3-fold diluted with DMSO, then diluted with reaction buffer into a working solution, then added to a 384-well plate at 2.5 μL/well, and centrifuged at 1500 rpm for 40 s. Then 2.5 μL of ATR/ATRIP working solution, P53 working solution and ATP working solution were added into the 384-well plate, centrifuged at 1500 rpm for 40 s and reacted at room temperature for 30 minutes. After the reaction was completed, 5 μL of termination buffer was added to each well, and centrifuged at 1500 rpm for 40 s. Antibody working solution containing 0.083 μg/mL anti-phospho-p53 (Ser15)-K (CisBio, cat. 61P08KAE) and 5 μg/mL anti-GST-d2 (CisBio, cat. 61GSTDLA) was prepared with assay buffer and added to the 384-well plate at 5 μL/well, then centrifuged at 1500 rpm for 40 s and reacted overnight at room temperature. Microplate reader (Tecan, Infinite M1000 Pro) was used to detect TR-FRET, and the data were analyzed with Graphpad software, and the four-parameter equation was used to fit the curve and calculate the IC50 value of the inhibitor (Table 1).

[2] = test system: OCI-LY19 human B-cell lymphoma; assay: In vivo drug efficacy, OCI-LY19 human B-cell lymphoma mouse subcutaneous xenograft tumor model; conditions: Group 2, 20 mg/kg p.o. once a day
Experimental: Cell culture: Human B-cell lymphoma OCI-LY19 cells were maintained as a monolayer in MEM-α medium containing 10% fetal bovine serum in a constant temperature incubator at 37° C. with 5% CO2. Tumor cells were subcultured twice a week. Cells in exponential growth phase were harvested and counted for inoculation.
Experimental animals: BALB/c nude mice, 6-8 weeks old, 19-22 g, purchased from Beijing Vital River Laboratory Animal Technology Co., Ltd.
For Vehicle, positive control (AZD6738, CAS number: 1352226-88-0) and compound 2, a total of 6 experimental groups were set up, as shown in Table 5 below:
Experimental method: The OCI-LY19 cell line (3.0×10^6 cells/mouse) was inoculated subcutaneously on the right back of the experimental mouse, and the inoculation volume of each mouse was 0.1 mL, and the growth of tumors was observed regularly, and until the tumor grew to about 100 mm^3, the mice were randomly divided into groups according to the tumor size and body weight, and administered according to the administration plan shown in Table 5, and the mouse body weight and tumor size were measured twice a week during the whole experiment.
tumor volume (mm^3)=0.5×(tumor long diameter×tumor short diameter^2). Tumor size calculation formula: […]

ATR/ATRIP kinase, sequence (Q13535 whole entry): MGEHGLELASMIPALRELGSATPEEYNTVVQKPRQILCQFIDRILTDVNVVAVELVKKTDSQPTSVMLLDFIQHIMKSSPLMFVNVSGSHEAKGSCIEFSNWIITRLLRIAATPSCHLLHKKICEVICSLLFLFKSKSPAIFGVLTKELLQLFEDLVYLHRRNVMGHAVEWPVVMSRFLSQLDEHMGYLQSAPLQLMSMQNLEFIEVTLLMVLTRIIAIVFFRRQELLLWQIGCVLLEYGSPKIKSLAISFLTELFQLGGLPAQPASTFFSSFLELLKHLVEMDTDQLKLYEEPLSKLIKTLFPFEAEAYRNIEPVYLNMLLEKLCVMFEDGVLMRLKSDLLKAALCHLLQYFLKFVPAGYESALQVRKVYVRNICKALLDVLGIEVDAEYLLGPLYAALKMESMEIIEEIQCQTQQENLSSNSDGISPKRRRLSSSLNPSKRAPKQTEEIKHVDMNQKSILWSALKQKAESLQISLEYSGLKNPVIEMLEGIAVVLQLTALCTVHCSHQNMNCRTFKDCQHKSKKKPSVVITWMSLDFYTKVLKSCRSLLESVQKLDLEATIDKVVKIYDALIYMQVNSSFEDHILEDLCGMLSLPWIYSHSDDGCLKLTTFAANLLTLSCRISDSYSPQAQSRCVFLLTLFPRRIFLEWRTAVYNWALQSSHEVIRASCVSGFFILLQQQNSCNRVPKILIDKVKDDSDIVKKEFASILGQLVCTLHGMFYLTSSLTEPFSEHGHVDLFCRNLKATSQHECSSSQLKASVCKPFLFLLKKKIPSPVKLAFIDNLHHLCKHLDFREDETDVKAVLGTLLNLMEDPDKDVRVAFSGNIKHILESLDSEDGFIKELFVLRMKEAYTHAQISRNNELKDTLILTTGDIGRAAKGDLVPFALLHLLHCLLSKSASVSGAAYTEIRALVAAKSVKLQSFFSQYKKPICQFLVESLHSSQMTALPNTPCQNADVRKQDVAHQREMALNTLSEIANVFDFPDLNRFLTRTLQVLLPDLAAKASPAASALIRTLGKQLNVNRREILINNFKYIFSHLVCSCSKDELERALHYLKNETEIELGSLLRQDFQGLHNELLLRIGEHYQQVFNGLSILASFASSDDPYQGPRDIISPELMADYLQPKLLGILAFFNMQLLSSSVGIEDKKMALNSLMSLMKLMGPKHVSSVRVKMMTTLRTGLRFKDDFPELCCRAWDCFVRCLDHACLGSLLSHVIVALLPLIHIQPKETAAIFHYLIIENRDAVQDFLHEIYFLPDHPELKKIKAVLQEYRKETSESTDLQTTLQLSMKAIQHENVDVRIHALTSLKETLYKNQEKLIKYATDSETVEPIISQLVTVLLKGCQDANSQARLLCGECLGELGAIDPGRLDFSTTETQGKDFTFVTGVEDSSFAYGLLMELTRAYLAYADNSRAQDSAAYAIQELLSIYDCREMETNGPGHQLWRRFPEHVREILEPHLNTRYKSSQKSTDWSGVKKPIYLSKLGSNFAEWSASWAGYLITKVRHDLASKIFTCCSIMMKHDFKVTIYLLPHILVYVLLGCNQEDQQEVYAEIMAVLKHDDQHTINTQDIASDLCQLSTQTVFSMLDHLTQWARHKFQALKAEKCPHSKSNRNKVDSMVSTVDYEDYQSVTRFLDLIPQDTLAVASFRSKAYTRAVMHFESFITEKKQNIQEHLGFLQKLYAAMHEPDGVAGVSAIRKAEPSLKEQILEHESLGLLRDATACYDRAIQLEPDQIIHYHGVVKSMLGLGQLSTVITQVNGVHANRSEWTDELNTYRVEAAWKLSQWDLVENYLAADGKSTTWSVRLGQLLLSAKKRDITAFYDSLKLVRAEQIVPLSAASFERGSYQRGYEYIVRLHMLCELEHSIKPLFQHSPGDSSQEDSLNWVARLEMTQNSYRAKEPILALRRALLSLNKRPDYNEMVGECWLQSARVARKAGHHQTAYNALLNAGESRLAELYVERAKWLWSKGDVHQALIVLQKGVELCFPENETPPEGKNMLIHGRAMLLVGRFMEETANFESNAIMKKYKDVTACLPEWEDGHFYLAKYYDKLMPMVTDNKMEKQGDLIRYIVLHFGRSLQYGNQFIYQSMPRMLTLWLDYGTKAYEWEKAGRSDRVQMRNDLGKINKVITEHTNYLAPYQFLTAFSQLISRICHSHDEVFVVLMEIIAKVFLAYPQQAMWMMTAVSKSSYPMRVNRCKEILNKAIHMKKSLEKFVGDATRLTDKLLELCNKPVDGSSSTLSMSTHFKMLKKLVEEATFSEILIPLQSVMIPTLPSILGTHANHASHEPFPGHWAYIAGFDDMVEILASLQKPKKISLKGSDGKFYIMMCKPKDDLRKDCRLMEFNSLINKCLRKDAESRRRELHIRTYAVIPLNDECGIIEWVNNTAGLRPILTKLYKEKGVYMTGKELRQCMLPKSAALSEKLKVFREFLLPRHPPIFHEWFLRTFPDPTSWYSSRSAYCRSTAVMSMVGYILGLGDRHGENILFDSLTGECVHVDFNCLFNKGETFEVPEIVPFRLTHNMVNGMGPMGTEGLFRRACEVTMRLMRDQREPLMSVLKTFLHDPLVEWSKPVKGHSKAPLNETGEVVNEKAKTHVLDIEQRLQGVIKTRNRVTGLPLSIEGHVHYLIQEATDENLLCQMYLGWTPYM
ATR/ATRIP kinase, sequence (Q8WXE1 whole entry partner): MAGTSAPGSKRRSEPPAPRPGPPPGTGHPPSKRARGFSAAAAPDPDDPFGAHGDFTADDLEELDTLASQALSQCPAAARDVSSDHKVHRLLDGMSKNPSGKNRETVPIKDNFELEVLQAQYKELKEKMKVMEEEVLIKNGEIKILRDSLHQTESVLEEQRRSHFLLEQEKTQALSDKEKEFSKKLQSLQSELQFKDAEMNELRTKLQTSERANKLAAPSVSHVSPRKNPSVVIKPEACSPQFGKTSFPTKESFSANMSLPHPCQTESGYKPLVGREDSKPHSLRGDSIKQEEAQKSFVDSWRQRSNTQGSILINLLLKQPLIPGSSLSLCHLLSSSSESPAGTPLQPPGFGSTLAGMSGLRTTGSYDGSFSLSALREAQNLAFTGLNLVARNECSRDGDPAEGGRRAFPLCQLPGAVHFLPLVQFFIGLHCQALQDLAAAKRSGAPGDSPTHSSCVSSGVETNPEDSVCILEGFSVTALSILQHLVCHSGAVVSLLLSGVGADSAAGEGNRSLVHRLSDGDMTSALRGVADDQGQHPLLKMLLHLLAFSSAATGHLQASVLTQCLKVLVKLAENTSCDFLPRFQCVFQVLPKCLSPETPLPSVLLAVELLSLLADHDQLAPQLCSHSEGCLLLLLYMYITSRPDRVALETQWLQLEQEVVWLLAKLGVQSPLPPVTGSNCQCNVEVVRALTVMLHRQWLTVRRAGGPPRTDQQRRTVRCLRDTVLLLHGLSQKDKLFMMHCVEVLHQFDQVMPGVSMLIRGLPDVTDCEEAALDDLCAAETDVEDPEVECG

Structure (SMILES) | IC50 [1] [nM] | IC50 (ATR/ATRIP kinase) [nM] | also measured
C[C@@H]1COCCN1c1nc2c(cnn2-c2cc[nH]n2)c2c1CCN2C [Compound 12, (R)-3-methyl-4-(1-methyl-6-(1H-pyrazol-3-yl)-tetrahydropyrazolo[3,4-b]pyrrolo[2,3-d]pyridin-4-yl)morpholine] | 93.7 |  | 
C[C@@H]1COCCN1c1nc2c(cnn2-c2cc[nH]n2)c2c1CCN2S(=O)(=O)C(F)(F)F [Compound 6, (R)-4-(6-(1H-pyrazol-3-yl)-1-((trifluoromethyl)sulfonyl)-1,2,3,6-tetrahydropyrazolo[3,4-b]pyrrolo[2,3-d]pyridin-4-yl)-3-methylmorpholine trifluoroacetate] | 79.6 | 4.8 | 
C[C@@H]1COCCN1c1nc2c(cnn2-c2cc[nH]n2)c2c1CCN2S(=O)(=O)N(C)C [Compound 4, (R)—N,N-dimethyl-4-(3-methylmorpholino)-6-(1H-pyrazol-3-yl)-2,3-dihydropyrazolo[3,4-b]pyrrolo[2,3-d]pyridine-1(6H)-sulfonamide trifluoroacetate] |  | 1.8 | 
C[C@@H]1COCCN1c1nc2c(cnn2-c2cc[nH]n2)c2c1CCN2c1cccnc1 [Compound 13, (R)-4-(6-(1H-pyrazol-3-yl)-1-(pyridin-3-yl)-1,2,3,6-tetrahydropyrazolo[3,4-b]pyrrolo[2,3-d]pyridin-4-yl)-3-methylmorpholine trifluoroacetate] |  | 7.5 | 
C[C@@H]1COCCN1c1nc2c(c(C#N)nn2-c2cc[nH]n2)c2c1CCN2S(C)(=O)=O [Compound 7, (R)-4-(3-methylmorpholinyl)-1-(methylsulfonyl)-6-(1H-pyrazol-3-yl)-1,2,3,6-tetrahydropyrazolo[3,4-b]pyrrolo[2,3-d]pyridine-8-carbonitrile] | 406 | 46 | 
C[C@@H]1COCCN1c1nc2c(-c3cc[nH]n3)nccc2c2c1ccn2S(C)(=O)=O [Compound 8, (R)-3-methyl-4-(1-(methylsulfonyl)-6-(1H-pyrazol-3-yl)-1H-pyrrolo[3,2-c][1,7]naphthyridin-4-yl)morpholine] | 32.3 | 40 | 
C[C@@H]1COCCN1c1cc(C2([S@](C)(=N)=O)CC2)nc(-c2cc[nH]c3nccc2-3)n1 [AZD6738, reference compound] |  |  | T/C (%) [2]: 31.2%; TGI (%) [2]: 72.1%; Tumor volume (10 days, mm^3) ([2]; 10 days): 108.23 ± 4.67 mm^3; Tumor volume (24 days, mm^3) ([2]; 24 days): 738.65 ± 257.29 mm^3
C[C@@H]1COCCN1c1nc2c(cnn2-c2cc[nH]n2)c2c1CCN2S(N)(=O)=O [Compound 5, (R)-4-(3-methylmorpholine)-6-(1H-pyrazol-3-yl)-2,3-dihydropyrazolo[3,4-b]pyrrolo[2,3-d]pyridine-1(6H)-sulfonamide] | 262 |  | 
C[C@@H]1COCCN1c1nc2c(cnn2-c2cc[nH]n2)c2c1CCN2C1CC1 [Compound 11, (R)-4-(1-cyclopropyl-6-(1H-pyrazol-3-yl)-1,2,3,6-tetrahydropyrazolo[3,4-b]pyrrolo[2,3-d]pyridin-4-yl)-3-methylmorpholine] | 72 | 5.9 | 
